Laboratory results reported in patent US20070028400A1, “Skin and/or hair treatment agent containing tetrasubstituted cyclohexene compounds” (priority 2003, published 2007).

Test system: primary normal human melanocytes
Assay: Melanogenesis assay (C14-tyrosine incorporation), 3 days incubation
Format: cell-based
Conditions: measured as C14-tyrosine incorporation, n=3
Procedure: By way of example, the test for the compound acetyl-retinyliminoethanol is given.
A melanogenesis assay was carried out after incubation for 3 days of primary normal human melanocytes with test substance compared to control. The numbers given in the table indicate the melanogenesis rates based on the untreated control (=100%) (measured as C14-tyrosine incorporation).

SMILES: CC(=O)OCC/N=C/C=C(C)/C=C/C=C(C)/C=C/C1=C(C)CCCC1(C)C [acetyl-retinyliminoethanol, 2-{[(1E,2E,4E,6E,8E)-3,7-dimethyl-9-(2,6,6-trimethylcyclohex-1-en-1-yl)nona-2,4,6,8-tetraen-1-ylidene]amino}ethyl acetate]
- melanogenesis rate based on the untreated control (=100%), Average (0.1 μg/ml test substance): 117%
- melanogenesis rate based on the untreated control (=100%), Average (1 μg/ml test substance): 253%
